{"source": "patent US6664214B1", "about": "“Uracil compounds and use thereof” (Sumitomo Chemical Company, Limited, priority 1999, dated 2003)", "key": {"giant foxtail": {"tested_on": "giant foxtail", "experiment": "Test Example 6: foliar treatment on upland field (Table 7)", "type": "in vivo, Setaria faberi", "design": "key: 0: little difference in the degree of germination or growth between the treated plants and the untreated plants at the time of examination; 10: the treated plants died completely or their germination or growth was completely inhibited", "conditions": "8 g/ha, 19 days after application, index 0 to 10", "procedure": "(§1) In the examples, the compounds are identified by the Compound Numbers as in Tables 1 to 3. […] A plastic pot having a area of 27×20 cm^2 and a depth of 7.5 cm filled with soil, seeded with barnyardgrass. The test plant was grown in a greenhouse for 4 days. The seedlings of large crabgrass and giant foxtail, which were seeded into a pot for plug seedlings and grown in a greenhouse for 14 days, were transplanted into the plastic pot. The test plants, further, were grown in the greenhouse for 8 days. Then each of compound listed below was formulated into an emulsifiable concentrate according to Formulation Example 2 and then diluted to the prescribed amount with water containing a spreading agent and the dilution was uniformly sprayed over the foliage of the test plants with sprayer at a rate of 1000 liters per hectare. After the application, the test plants were grown in the greenhouse for 19 days, and the herbicidal activity were determined."}, "velvetleaf [1]": {"tested_on": "velvetleaf", "experiment": "Test Example 3: foliar treatment on upland field (Table 4)", "type": "in vivo, Abutilon theophrasti", "design": "key: 0: little difference in the degree of germination or growth between the treated plants and the untreated plants at the time of examination; 10: the treated plants died completely or their germination or growth was completely inhibited", "conditions": "125 g/ha active ingredient, examined 16 days after application, index 0-10", "procedure": "(§2) In the examples, the compounds are identified by the Compound Numbers as in Tables 1 to 3. […] A cylindrical plastic pot having a diameter of 10 cm and a depth of 10 cm was filled with soil and seeded with ivyleaf momingglory, velvetleaf and barnyardgrass. These test plants were grown in a greenhouse for 10 days. Then each of compounds listed below was formulated into an emulsifiable concentrate according to Formulation Example 2 and then diluted to the prescribed amount with water containing a spreading agent and the dilution was uniformly sprayed over the foliage of the test plants with sprayer at a rate of 1000 liters per hectare. After the application, the test plants were grown in the greenhouse for 16 days, and the herbicidal activity were determined."}, "barnyardgrass [2]": {"tested_on": "barnyardgrass", "experiment": "Test Example 3: foliar treatment on upland field (Table 4)", "type": "in vivo, Echinochloa crus-galli", "design": "key: 0: little difference in the degree of germination or growth between the treated plants and the untreated plants at the time of examination; 10: the treated plants died completely or their germination or growth was completely inhibited", "conditions": "125 g/ha active ingredient, examined 16 days after application, index 0-10", "procedure": "as §2"}, "large crabgrass [3]": {"tested_on": "large crabgrass", "experiment": "Test Example 5: foliar treatment on upland field (Table 6)", "type": "in vivo, Digitaria sanguinalis", "design": "key: 0: little difference in the degree of germination or growth between the treated plants and the untreated plants at the time of examination; 10: the treated plants died completely or their germination or growth was completely inhibited", "conditions": "125 g/ha, 19 days after application, index 0 to 10", "procedure": "In the examples, the compounds are identified by the Compound Numbers as in Tables 1 to 3. […] A pot for plug seedlings seeded with large crabgrass. The test plant was grown in a greenhouse for 14 days, then transplanted into a plastic pot having an area of 17×12 cm^2 and a depth of 7 cm, and further the test plants were grown in the greenhouse for 8 days. Then each of compounds listed below was formulated into an emulsifiable concentrate according to Formulation Example 2 and then diluted to the prescribed amount with water containing a spreading agent and the dilution was uniformly sprayed over the foliage of the test plants with sprayer at a rate of 1000 liters per hectare. After the application, the test plants were grown in the greenhouse for 19 days, and the herbicidal activity were determined."}, "barnyardgrass [4]": {"tested_on": "barnyardgrass", "experiment": "Test Example 4: soil surface treatment on upland field (Table 5)", "type": "in vivo, Echinochloa crus-galli", "design": "key: 0: little difference in the degree of germination or growth between the treated plants and the untreated plants at the time of examination; 10: the treated plants died completely or their germination or growth was completely inhibited", "conditions": "500 g/ha active ingredient, examined 12 days after application, index 0-10", "source_text": "(§3) In the examples, the compounds are identified by the Compound Numbers as in Tables 1 to 3. […] A cylindrical plastic pot having a diameter of 10 cm and a depth of 10 cm was filled with soil and seeded ivyleaf morningglory, velvetleaf and barnyardgrass. Then each of compounds listed below was formulated into an emulsifiable concentrate according to Formulation Example 2 and then diluted to the prescribed amount with water and dilution was uniformly sprayed over the surface of the soil with sprayer at the rate of 1000 liters per hectare. After the application, the test plants were grown in a greenhouse for 12 days, and the herbicidal activity was examined."}, "ivyleaf morningglory [5]": {"tested_on": "ivyleaf morningglory", "experiment": "Test Example 3: foliar treatment on upland field (Table 4)", "type": "in vivo, Ipomoea hederacea", "design": "key: 0: little difference in the degree of germination or growth between the treated plants and the untreated plants at the time of examination; 10: the treated plants died completely or their germination or growth was completely inhibited", "conditions": "125 g/ha active ingredient, examined 16 days after application, index 0-10", "procedure": "as §2"}, "velvetleaf [6]": {"tested_on": "velvetleaf", "experiment": "Test Example 4: soil surface treatment on upland field (Table 5)", "type": "in vivo, Abutilon theophrasti", "design": "key: 0: little difference in the degree of germination or growth between the treated plants and the untreated plants at the time of examination; 10: the treated plants died completely or their germination or growth was completely inhibited", "conditions": "500 g/ha active ingredient, examined 12 days after application, index 0-10", "source_text": "as §3"}, "large crabgrass [7]": {"tested_on": "large crabgrass", "experiment": "Test Example 6: foliar treatment on upland field (Table 7)", "type": "in vivo, Digitaria sanguinalis", "design": "key: 0: little difference in the degree of germination or growth between the treated plants and the untreated plants at the time of examination; 10: the treated plants died completely or their germination or growth was completely inhibited", "conditions": "8 g/ha, 19 days after application, index 0 to 10", "procedure": "as §1"}, "velvetleaf [8]": {"tested_on": "velvetleaf", "experiment": "Test Example 1: foliar treatment on upland field", "type": "in vivo, Abutilon theophrasti", "conditions": "125 g/ha, 8 days after application", "procedure": "(§4) In the examples, the compounds are identified by the Compound Numbers as in Tables 1 to 3.\n(§5) A cylindrical plastic pot having a diameter of 10 cm and a depth of 10 cm was filled with soil and seeded with ivyleaf momingglory, velvetleaf and bamyardgrass. These test plants were grown in a greenhouse for 9 days. Then each of compounds 1-1, 2-1, 2-2, 3-1 and 3-101 was formulated into an emulsifiable concentrate according to Formulation Example 2 and then diluted to the prescribed amount with water containing a spreading agent and the dilution was uniformly sprayed over the foliage of the test plants with sprayer at a rate of 1000 liters per hectare. After the application, the test plants were grown in the greenhouse for 8 days, and the herbicidal activity were determined."}, "barnyardgrass [9]": {"tested_on": "barnyardgrass", "experiment": "Test Example 1: foliar treatment on upland field", "type": "in vivo, Echinochloa crus-galli", "conditions": "125 g/ha, 8 days after application", "procedure": "as §4, §5"}, "ivyleaf morningglory [10]": {"tested_on": "ivyleaf morningglory", "experiment": "Test Example 1: foliar treatment on upland field", "type": "in vivo, Ipomoea hederacea", "conditions": "125 g/ha, 8 days after application", "procedure": "as §4, §5"}, "ivyleaf morningglory [11]": {"tested_on": "ivyleaf morningglory", "experiment": "Test Example 4: soil surface treatment on upland field (Table 5)", "type": "in vivo, Ipomoea hederacea", "design": "key: 0: little difference in the degree of germination or growth between the treated plants and the untreated plants at the time of examination; 10: the treated plants died completely or their germination or growth was completely inhibited", "conditions": "500 g/ha active ingredient, examined 12 days after application, index 0-10", "source_text": "as §3"}, "barnyardgrass [12]": {"tested_on": "barnyardgrass", "experiment": "Test Example 6: foliar treatment on upland field (Table 7)", "type": "in vivo, Echinochloa crus-galli", "design": "key: 0: little difference in the degree of germination or growth between the treated plants and the untreated plants at the time of examination; 10: the treated plants died completely or their germination or growth was completely inhibited", "conditions": "8 g/ha, 19 days after application, index 0 to 10", "procedure": "as §1"}, "velvetleaf [13]": {"tested_on": "velvetleaf", "experiment": "Test Example 2: soil surface treatment on upland field", "type": "in vivo, Abutilon theophrasti", "conditions": "500 g/ha, 12 days after application", "source_text": "as §3, with “seeded with velvetleaf.” for “seeded ivyleaf morningglory, velvetleaf and barnyardgrass.”, “compounds 1-1, 2-1, 2-2, 3-1 and 3-101” for “compounds listed below”, “at a” for “at the”"}}}
{"smiles": "COC(=O)C(C)Oc1ccc(COc2cc(-n3c(=O)cc(C(F)(F)F)n(C)c3=O)c(F)cc2Cl)cc1", "note": "(stereo not shown) [Compound 1-1, methyl 2-[4-({2-chloro-4-fluoro-5-[3-methyl-2,6-dioxo-4-(trifluoromethyl)-1,2,3,6-tetrahydropyrimidine-1-yl]phenoxyl}methyl)phenoxy]propionate]", "values": [{"measurement": "Herbicidal effect Giant foxtail", "setting": "giant foxtail", "result": 9}, {"measurement": "Herbicidal effect Velvetleaf", "setting": "velvetleaf [1]", "result": 10}, {"measurement": "Herbicidal effect Barnyardgrass", "setting": "barnyardgrass [2]", "result": 10}, {"measurement": "Herbicidal effect Large crabgrass", "setting": "large crabgrass [3]", "result": 10}, {"measurement": "Herbicidal effect Barnyardgrass", "setting": "barnyardgrass [4]", "result": 9}, {"measurement": "Herbicidal effect Ivyleaf morningglory", "setting": "ivyleaf morningglory [5]", "result": 10}, {"measurement": "Herbicidal effect Velvetleaf", "setting": "velvetleaf [6]", "result": 10}, {"measurement": "Herbicidal effect Large crabgrass", "setting": "large crabgrass [7]", "result": 10}, {"measurement": "growth of velvetleaf", "setting": "velvetleaf [8]", "result": "completely controlled"}, {"measurement": "growth of barnyardgrass", "setting": "barnyardgrass [9]", "result": "completely controlled"}, {"measurement": "growth of ivyleaf morningglory", "setting": "ivyleaf morningglory [10]", "result": "completely controlled"}, {"measurement": "Herbicidal effect Ivyleaf morningglory", "setting": "ivyleaf morningglory [11]", "result": 10}, {"measurement": "Herbicidal effect Barnyard-grass", "setting": "barnyardgrass [12]", "result": 10}, {"measurement": "germination of velvetleaf", "setting": "velvetleaf [13]", "result": "completely controlled"}]}
{"smiles": "COC(=O)C(C)Oc1cccc(COc2cc(-n3c(=O)cc(C(F)(F)F)n(C)c3=O)c(F)cc2Cl)c1", "note": "(stereo not shown) [Compound 2-1, methyl 2-[3-({2-chloro-4-fluoro-5-[3-methyl-2,6-dioxo-4-(trifluoromethyl)-1,2,3,6-tetrahydropyrimidine-1-yl]phenoxy}methyl)phenoxy]propionate]", "values": [{"measurement": "Herbicidal effect Giant foxtail", "setting": "giant foxtail", "result": 10}, {"measurement": "Herbicidal effect Velvetleaf", "setting": "velvetleaf [1]", "result": 10}, {"measurement": "Herbicidal effect Barnyardgrass", "setting": "barnyardgrass [2]", "result": 10}, {"measurement": "Herbicidal effect Large crabgrass", "setting": "large crabgrass [3]", "result": 10}, {"measurement": "Herbicidal effect Barnyardgrass", "setting": "barnyardgrass [4]", "result": 10}, {"measurement": "Herbicidal effect Ivyleaf morningglory", "setting": "ivyleaf morningglory [5]", "result": 10}, {"measurement": "Herbicidal effect Velvetleaf", "setting": "velvetleaf [6]", "result": 10}, {"measurement": "Herbicidal effect Large crabgrass", "setting": "large crabgrass [7]", "result": 10}, {"measurement": "growth of velvetleaf", "setting": "velvetleaf [8]", "result": "completely controlled"}, {"measurement": "growth of barnyardgrass", "setting": "barnyardgrass [9]", "result": "completely controlled"}, {"measurement": "growth of ivyleaf morningglory", "setting": "ivyleaf morningglory [10]", "result": "completely controlled"}, {"measurement": "Herbicidal effect Ivyleaf morningglory", "setting": "ivyleaf morningglory [11]", "result": 10}, {"measurement": "Herbicidal effect Barnyard-grass", "setting": "barnyardgrass [12]", "result": 10}, {"measurement": "germination of velvetleaf", "setting": "velvetleaf [13]", "result": "completely controlled"}]}
